Test results reported in patent publication US20110207729A1, “BICYCLIC ACYLGUANIDINE DERIVATIVE” (ASTELLAS PHARMA INC., priority 2007, published 2011).
Counter-ions that a name gives are not always drawn.

Target: T1, human 5-HT5A receptor (Homo sapiens, UniProt P47898)
T1 construct: expressed in transfected cells; membrane preparation
Experiment: Test on a human 5-HT5A receptor binding inhibition ([3H]5-CT)
Details: membrane from HEK293 cells expressing human 5-HT5A receptor; Ki calculated from IC50 and Kd 4.95 nM
Protocol: Acquisition of HEK293 cells for forced expressions of a human 5-HT5A receptor
The ORF (open reading frame; protein coding region) of a human 5-HT5A receptor (Genbank AF498985) was cloned from a human hippocampus cDNA library, and then inserted into a pCR2.1 vector (Invitrogen), and Escherichia coli containing the plasmid was cultured in a large amount. Next, the full-length cDNA sequence of the human 5-HT5A receptor was analyzed, and recombined into a pcDNA3.1 vector (Invitrogen) as an expression vector and cultured in a large amount. HEK293 established cells (ATCC) derived from the human fetal kidney were seeded, the expression plasmid (1 μg) obtained above were added thereto with LIPOFECTAMINE 2000 (Invitrogen; 2 μl), the gene was transfected into HEK293 cells, and the expression cells were screened with a drug-resistant marker, Geneticin (G418 sulfate 500 μg/ml; Kanto Chemical Co., Inc.). Thus prepared recombinant cells which express the gene were cultured in a medium containing D-MEM (Dulbecco's modified eagle medium, Sigma), 10% FCS (Fetal calf serum: fetal bovine serum), 1% Pc./Sm (Penicillin/Streptomycin, Invitrogen), and 500 μg/ml G418 for 3 days. These experimental operations follow an manual for gene operation experiment and an instruction appended in a reagent, and the like, such as a known method (Sambrook, J. et al, Molecular Cloning—A Laboratory Manual”, Cold Spring Harabor laboratory, NY, 1989).
(1) Preparation of a Membrane from HEK293 Cells for Forced Expressions of a Human 5-HT5A Receptor
HEK293 cells for forced expressions of a human 5-HT5A receptor were cultured in a F500 plate, and scraped with a scraper. After centrifugation, a precipitate was collected, and an incubation buffer (50 mM Tris (HCl) (pH 7.4), 10 mM MgSO4, and 0.5 mM EDTA (ethylenediamine tetraacetic acid)) were added thereto. After homogenization, it was further centrifuged, and the precipitate was added with the incubation buffer, followed by thoroughly suspending. This operation was repeated, and a protein concentration was measured, thereby completing the preparation of a membrane.
(2) Test on a Human 5-HT5A Receptor Binding Inhibition
A solution of a compound to be tested and 100 μM 5-CT (5-carboxamidetriptamine) in DMSO was added to a 96-well plate at 2 μl/well, and suspended in an incubation buffer, and a membrane from HEK293 cells for forced expressions of a human 5-HT5A receptor prepared at 200 μg/ml was added at 100 μl/well. After incubation at room temperature for 15 minutes, a [^3H]5-CT solution (2 nM [^3H]5-CT, incubation buffer) was added thereto at 100 μl/well.
Separately, 100 μl of the solution was distributed into a liquid scintillation vial, and 2 ml of Aquasol II (registered trademark) was added thereto, followed by stirring. Then, a radioactivity was measured by a liquid scintillation counter. It was incubated at 37° C. for 60 minutes. The reaction mixture was sucked into 96-well GF/C filter plate that had been pre-treated with 0.2% polyethyleneimine, and washed six times with an ice-cooled, 50 mM Tris (pH 7.5) buffer. The GF/C filter plate was dried.
Microscint TMPS (registered trademark) was added thereto at 40 μl/well. A radioactivity remaining on the GF/C filter plate was measured by a top counter.
The [^3H]5-CT binding inhibiting activity by the compound to be tested in each experiment was determined as an IC50 value with a radioactivity upon addition of DMSO alone being 0% inhibition, and a radioactivity upon addition of 1 μM 5-CT being 100% inhibition. Separately, a Ki value was calculated from the Kd value of the [^3H]5-CT determined from Scatchard analysis, by the following equation.
Ki=IC50(1+Concentration of ligands added/Kd(4.95 nM))

T1 sequence (P47898 whole entry): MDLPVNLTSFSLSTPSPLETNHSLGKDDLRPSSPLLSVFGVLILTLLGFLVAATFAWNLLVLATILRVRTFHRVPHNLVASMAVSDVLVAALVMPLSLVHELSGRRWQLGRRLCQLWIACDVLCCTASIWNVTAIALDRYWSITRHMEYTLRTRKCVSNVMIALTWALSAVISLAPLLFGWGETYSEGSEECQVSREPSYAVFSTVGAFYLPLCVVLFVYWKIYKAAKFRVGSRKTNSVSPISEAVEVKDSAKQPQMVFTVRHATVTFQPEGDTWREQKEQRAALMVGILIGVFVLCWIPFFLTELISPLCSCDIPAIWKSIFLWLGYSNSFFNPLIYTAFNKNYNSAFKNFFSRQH

SMILES | Ki
NC(N)=NC(=O)c1ccc2c(c1)C(c1cncc(Cl)c1)=CCC2 [Example 2-150] | 30 to 300 nM
CC(C)n1cc(C2=CCCc3ccc(C(=O)N=C(N)N)cc32)cn1 [Example 2-167] | 30 to 300 nM
N#Cc1ccc(F)cc1C1=CCCc2ccc(C(=O)N=C(N)N)cc21 [Example 2-175] | 30 to 300 nM
COc1cccc(C2=CCCc3ccc(C(=O)N=C(N)N)cc32)c1C#N [Example 2-181] | 30 to 300 nM
N#Cc1cc(Cl)ccc1C1=CCCc2ccc(C(=O)N=C(N)N)cc21 [Example 2-185] | 30 to 300 nM
NC(N)=NC(=O)c1ccc2c(c1)C(c1cccc3c1OCCO3)=CCC2 [Example 2-189] | 30 to 300 nM
Cn1cc(C2=CCCc3ccc(C(=O)N=C(N)N)cc32)ccc1=O [Example 2-191] | 30 to 300 nM
NC(N)=NC(=O)c1ccc2c(c1)C(N1CCNCC1)CCC2 (centres unmarked) [Example 3-01, N-(diaminomethylene)-8-piperazin-1-yl-5,6,7,8-tetrahydronaphthalene-2-carboxamide trihydrochloride] | 30 to 300 nM
NC(N)=NC(=O)c1ccc2c(c1)C(c1ccccc1)=CCCC2 [Example 3-03] | 30 to 300 nM
N#Cc1ccc(C2=CCCCc3ccc(C(=O)N=C(N)N)cc32)cc1 [Example 3-04] | 30 to 300 nM
COc1ccccc1C1=CCCCc2ccc(C(=O)N=C(N)N)cc21 [Example 3-06] | 30 to 300 nM
NC(N)=NC(=O)c1ccc2occ(-c3ccccc3)c2c1 [Example 3-09] | 30 to 300 nM
N#Cc1ccc(C2=CCSc3ccc(C(=O)N=C(N)N)cc32)cc1 [Example 3-17] | 3 to 30 nM
COc1ccccc1C1=CCSc2ccc(C(=O)N=C(N)N)cc21 [Example 3-18] | 30 to 300 nM
N#Cc1ccccc1C1=CCSc2ccc(C(=O)N=C(N)N)cc21 [Example 3-19] | 3 to 30 nM
COc1ccc(-c2csc3ccc(C(=O)N=C(N)N)cc23)c(OC)c1 [Example 3-20] | 3 to 30 nM
COc1ccc(-c2csc3ccc(C(=O)N=C(N)N)cc23)cc1 [Example 3-24] | 3 to 30 nM
COc1c(F)cccc1-c1csc2ccc(C(=O)N=C(N)N)cc12 [Example 3-27] | 3 to 30 nM
COc1ccc(F)cc1-c1csc2ccc(C(=O)N=C(N)N)cc12 [Example 3-28] | 3 to 30 nM
NC(N)=NC(=O)c1ccc2c(c1)C(c1c(F)cc(F)cc1F)CCO2 (centres unmarked) [Example 3-31] | 3 to 30 nM
NC(N)=NC(=O)c1ccc2scc(-c3cccnc3)c2c1 [Example 3-32] | 30 to 300 nM
CC1(C)CCC(c2c(F)cc(F)cc2F)c2cc(C(=O)N=C(N)N)ccc21 (centres unmarked) [Example 3-34] | 30 to 300 nM
NC(N)=NC(=O)c1ccc2scc(-c3ccncc3)c2c1 [Example 3-37] | 30 to 300 nM
N#Cc1ccccc1-c1csc2ccc(C(=O)N=C(N)N)cc12 [Example 3-38] | 3 to 30 nM
COc1ccccc1-c1c(C#N)sc2ccc(C(=O)N=C(N)N)cc12 [Example 3-39] | 3 to 30 nM

Continued, values first:

Ki | SMILES
0.3 to 3 nM | CC1=C(c2cc(F)c(F)cc2F)c2cc(C(=O)N=C(N)N)ccc2CC1 [Example 2-143]
0.3 to 3 nM | CC1=C(c2ccc(Cl)cc2Cl)c2cc(C(=O)N=C(N)N)ccc2CC1 [Example 2-144]
3 to 30 nM | NC(N)=NC(=O)c1ccc2c(c1)C(c1cncs1)=CCC2 [Example 2-157]
0.3 to 3 nM | NC(N)=NC(=O)c1ccc2c(c1)C(c1ccncc1F)=CCC2 [Example 2-158]
0.3 to 3 nM | CC1=C(c2ccc(F)cc2C)c2cc(C(=O)N=C(N)N)ccc2CC1 [Example 2-163]
0.3 to 3 nM | CC1=C(c2ccc(C)cc2C)c2cc(C(=O)N=C(N)N)ccc2CC1 [Example 2-164]
3 to 30 nM | COc1ccc(C2=CCCc3ccc(C(=O)N=C(N)N)cc32)c(C(F)(F)F)c1 [Example 2-165]
0.3 to 3 nM | COc1cc(C#N)ccc1C1=C(F)CCc2ccc(C(=O)N=C(N)N)cc21 [Example 2-166]
0.3 to 3 nM | NC(N)=NC(=O)c1ccc2c(c1)C(c1cccc(F)c1Cl)=CCC2 [Example 2-168]
3 to 30 nM | NC(N)=NC(=O)c1ccc2c(c1)C(c1cc(F)ccc1Cl)=CCC2 [Example 2-169]
0.3 to 3 nM | COc1ccc(C2=C(C)CCc3ccc(C(=O)N=C(N)N)cc32)c(C)c1 [Example 2-170]
3 to 30 nM | NC(N)=NC(=O)c1ccc2c(c1)C(c1ccc3nccn3c1)=CCC2 [Example 2-171]
3 to 30 nM | COc1ccc(C2=CCCc3ccc(C(=O)N=C(N)N)cc32)c(OC)n1 [Example 2-173]
3 to 30 nM | NC(N)=NC(=O)c1ccc2c(c1)C(c1ccnc(Cl)c1)=CCC2 [Example 2-174]
3 to 30 nM | NC(N)=NC(=O)c1ccc2c(c1)C(c1cccnc1Cl)=CCC2 [Example 2-176]
0.3 to 3 nM | CC1=C(c2ccc(F)cc2F)c2cc(C(=O)N=C(N)N)ccc2CC1 [Example 2-177]
0.3 to 3 nM | COc1cc(F)c(C2=C(C)CCc3ccc(C(=O)N=C(N)N)cc32)c(F)c1 [Example 2-178]
3 to 30 nM | COc1cc(F)cc(F)c1C1=CCCc2ccc(C(=O)N=C(N)N)cc21 [Example 2-179]
3 to 30 nM | N#Cc1cccc(F)c1C1=CCCc2ccc(C(=O)N=C(N)N)cc21 [Example 2-180]

Ki | SMILES
3 to 30 nM | NC(N)=NC(=O)c1ccc2c(c1)C(c1c(Cl)cncc1Cl)=CCC2 [Example 2-190]
3 to 30 nM | NC(N)=NC(=O)c1ccc2c(c1)C(c1ccccc1)CCC2 (centres unmarked) [Example 3-02]
3 to 30 nM | NC(N)=NC(=O)c1ccc2c(c1)C(c1c(F)cc(F)cc1F)=CCCC2 [Example 3-05]
3 to 30 nM | NC(N)=NC(=O)c1ccc2scc(-c3ccccc3)c2c1 [Example 3-07]
0.3 to 3 nM | COc1ccccc1-c1csc2ccc(C(=O)N=C(N)N)cc12 [Example 3-08]
3 to 30 nM | NC(N)=NC(=O)c1ccc2c(c1)C(c1ccccc1)=CCCO2 [Example 3-10]
3 to 30 nM | COc1ccccc1C1=CCCOc2ccc(C(=O)N=C(N)N)cc21 [Example 3-11]
0.3 to 3 nM | NC(N)=NC(=O)c1ccc2c(c1)C(c1c(F)cc(F)cc1F)=CCCO2 [Example 3-12]
3 to 30 nM | N#Cc1ccc(C2=CCCOc3ccc(C(=O)N=C(N)N)cc32)cc1 [Example 3-13]
0.3 to 3 nM | NC(N)=NC(=O)c1ccc2scc(-c3c(F)cc(F)cc3F)c2c1 [Example 3-14]
3 to 30 nM | Cc1ccc(C2=CCSc3ccc(C(=O)N=C(N)N)cc32)c(F)c1 [Example 3-15]
0.3 to 3 nM | NC(N)=NC(=O)c1ccc2c(c1)C(c1c(F)cc(F)cc1F)=CCS2 [Example 3-16]
0.3 to 3 nM | NC(N)=NC(=O)c1ccc2scc(-c3ccc(F)cc3)c2c1 [Example 3-25]
0.3 to 3 nM | NC(N)=NC(=O)c1ccc2scc(-c3ccccc3F)c2c1 [Example 3-26]
0.3 to 3 nM | NC(N)=NC(=O)c1ccc2scc(-c3ccccc3O)c2c1 [Example 3-29]
0.3 to 3 nM | NC(N)=NC(=O)c1ccc2scc(-c3ccc(F)cc3F)c2c1 [Example 3-30]
0.3 to 3 nM | COc1ccccc1-c1c(C)sc2ccc(C(=O)N=C(N)N)cc12 [Example 3-33]
0.3 to 3 nM | Cc1sc2ccc(C(=O)N=C(N)N)cc2c1-c1ccccc1F [Example 3-35]
